The source of these data is patent publication US20070128217A1 (priority 2003, published 2007).

Assay [1] concerns antibodies in sera from SARS patients (sera 1a, 1b, 2, 6, 37, 62, London, SARS-yellow, SARS-green). The class given is binding, human. Also on record: Binding of serum 6 to linear peptides of protein X1 of SARS-CoV Urbani / Binding of serum 37 to linear peptides of protein X1 of SARS-CoV Urbani / Binding of serum 6 to looped/cyclic peptide (PEPSCAN-ELISA) / Binding of serum 37 to looped/cyclic peptide (PEPSCAN-ELISA) / Binding of serum 37 to looped/cyclic peptides of protein X1 of SARS-CoV Urbani / Binding of serum 6 to linear peptides of protein X2 / Binding of serum 37 to linear peptides of protein X2 / Binding of serum 37 to looped/cyclic peptides of protein X2 of SARS-CoV Urbani / Binding of serum 6 to linear peptides of protein M of SARS-CoV Urbani / Binding of serum 37 to linear peptides of protein M of SARS-CoV Urbani / Binding of serum 6 to looped/cyclic peptides of protein M of SARS-CoV Urbani / Binding of serum 37 to looped/cyclic peptides of protein M of SARS-CoV Urbani / Binding of serum 6 to linear peptides of protein X3 of SARS-CoV Urbani / Binding of serum 37 to linear peptides of protein X3 of SARS-CoV Urbani / Binding of serum 37 to looped/cyclic peptides of protein X3 of SARS-CoV Urbani / Binding of serum 6 to linear peptides of protein X4 of SARS-CoV Urbani / Binding of serum 37 to linear peptides of protein X4 of SARS-CoV Urbani / Binding of serum 37 to looped/cyclic peptides of protein X4 of SARS-CoV Urbani / Binding of serum 6 to linear peptides of protein X5 of SARS-CoV Urbani / Binding of serum 37 to linear peptides of protein X5 of SARS-CoV Urbani / Binding of serum 37 to looped/cyclic peptides of protein X5 of SARS-CoV Urbani / Binding of serum 6 to linear peptides of protein N of SARS-CoV Urbani / Binding of serum 37 to linear peptides of protein N of SARS-CoV Urbani / Binding of serum 6 to linear peptide (PEPSCAN-ELISA) / Binding of serum 1a to looped/cyclic peptides of protein N of SARS-CoV Urbani / Binding of serum 1b to looped/cyclic peptides of protein N of SARS-CoV Urbani / Binding of serum 2 to looped/cyclic peptides of protein N of SARS-CoV Urbani / Binding of serum 6 to looped/cyclic peptides of protein N of SARS-CoV Urbani / Binding of serum 37 to looped/cyclic peptides of protein N of SARS-CoV Urbani / Binding of serum 62 to looped/cyclic peptides of protein N of SARS-CoV Urbani / Binding of serum London to looped/cyclic peptides of protein N of SARS-CoV Urbani / Binding of serum SARS-green to looped/cyclic peptides of protein N of SARS-CoV Urbani: unit not given here.

Assay [2] deals with control sera (pooled serum of ten healthy LUMC hospital workers; commercial negative donor pooled serum from the Dutch bloodbank). The assay is classed as binding, human. Also on record: Binding of Control serum LUMC to linear peptides / Binding of Control serum Blood-bank to linear peptides / Binding of Control serum LUMC to looped peptides / Binding of Control Serum Blood-Bank to Looped peptides / Binding of Control serum LUMC to linear peptides of the protein M of SARS-CoV Urbani / Binding of Control serum Blood-bank to linear peptides of the protein M of SARS-CoV Urbani / Binding of Control serum LUMC to looped peptides of the protein M of SARS-CoV Urbani / Binding of Control Serum Blood-Bank to Looped peptides of the protein M of SARS-CoV Urbani: unit not given here.

The subject of assay [3] is rabbit serum obtained by immunizing a rabbit with the SARS-CoV strain Frankfurt 1. The assay is classed as binding. Also on record: Binding of a rabbit serum to linear peptides / Binding of a rabbit serum to looped peptides / Rabbit serum linear peptides / Rabbit serum looped peptides / Binding of a rabbit serum to linear peptides of protein N of SARS-CoV Urbani (Rabbit serum linear peptides) / Binding of a rabbit serum to looped/cyclic peptides of protein N of SARS-CoV Urbani (Rabbit serum looped peptides): unit not given here.

Regarding SMWSFNPETNILLNV, in assay [1], the “Binding of serum 1a to linear peptides of protein M of SARS-CoV Urbani” value was 0.8, the “Binding of serum 1a to looped/cyclic peptides of protein M of SARS-CoV Urbani” value is recorded as 0.7, the “Binding of serum 1b to linear peptides of protein M of SARS-CoV Urbani” value is 0.7 and the “Binding of serum 1b to looped/cyclic peptides of protein M of SARS-CoV Urbani” value came out at 0.1. Moreover, in assay [1], the “Binding of serum 2 to linear peptides of protein M of SARS-CoV Urbani” value stood at 0.5, the “Binding of serum 2 to looped/cyclic peptides of protein M of SARS-CoV Urbani” value stood at 0.8, the “Binding of serum 6 to linear peptides of protein M of SARS-CoV Urbani” value worked out at 0.5 and the “Binding of serum 6 to looped/cyclic peptides of protein M of SARS-CoV Urbani” value was 0.6. Moreover, in assay [1], the “Binding of serum 37 to linear peptides of protein M of SARS-CoV Urbani” value is 0.5, the “Binding of serum 37 to looped/cyclic peptides of protein M of SARS-CoV Urbani” value came to 0.8, the “Binding of serum 62 to linear peptides of protein M of SARS-CoV Urbani” value is 0.5 and the “Binding of serum 62 to looped/cyclic peptides of protein M of SARS-CoV Urbani” value was 0.7. Further, in assay [1], the “Binding of serum London to linear peptides of protein M of SARS-CoV Urbani” value stood at 0.4, the “Binding of serum London to looped/cyclic peptides of protein M of SARS-CoV Urbani” value was determined as 0.2, the “Binding of serum SARS-green to linear peptides of protein M of SARS-CoV Urbani” value is 0.5 and the “Binding of serum SARS-green to looped/cyclic peptides of protein M of SARS-CoV Urbani” value came to 0.2. Also, in assay [1], the “Binding of serum SARS-yellow to linear peptides of protein M of SARS-CoV Urbani” value was determined as 0.2 and the “Binding of serum SARS-yellow to looped/cyclic peptides of protein M of SARS-CoV Urbani” value is listed as 0.7. In assay [2], the “Binding of Control Serum Blood-Bank to Looped peptides of the protein M of SARS-CoV Urbani” value was found to be 0.8, the “Binding of Control serum Blood-bank to linear peptides of the protein M of SARS-CoV Urbani” value came out at 0.8, the “Binding of Control serum LUMC to linear peptides of the protein M of SARS-CoV Urbani” value is 0.8 and the “Binding of Control serum LUMC to looped peptides of the protein M of SARS-CoV Urbani” value amounted to 0.7. Also, in assay [3], the “Rabbit serum linear peptides” value came out at 0.2 and the “Rabbit serum looped peptides” value was determined as 0.4.
Take SPLFLIVAALVFLIL: in assay [1], the “Binding of serum 1a to linear peptides of protein X4 of SARS-CoV Urbani” value was 0.6, the “Binding of serum 1a to looped/cyclic peptides of protein X4 of SARS-CoV Urbani” value was determined as 0.6, the “Binding of serum 1b to linear peptides of protein X4 of SARS-CoV Urbani” value was found to be 0.2 and the “Binding of serum 1b to looped/cyclic peptides of protein X4 of SARS-CoV Urbani” value turned out to be 0.4. In assay [1], the “Binding of serum 2 to linear peptides of protein X4 of SARS-CoV Urbani” value came to 0.5, the “Binding of serum 2 to looped/cyclic peptides of protein X4 of SARS-CoV Urbani” value was 0.7, the “Binding of serum 6 to linear peptides of protein X4 of SARS-CoV Urbani” value was found to be 0.2 and the “Binding of serum 6 to looped/cyclic peptides of protein X4 of SARS-CoV Urbani” value worked out at 0.3. Besides, in assay [1], the “Binding of serum 37 to linear peptides of protein X4 of SARS-CoV Urbani” value amounted to 0.6, the “Binding of serum 37 to looped/cyclic peptides of protein X4 of SARS-CoV Urbani” value is reported as 0.7, the “Binding of serum 62 to linear peptides of protein X4 of SARS-CoV Urbani” value turned out to be 0.6 and the “Binding of serum 62 to looped/cyclic peptides of protein X4 of SARS-CoV Urbani” value stood at 0.2. For the same sequence, in assay [1], the “Binding of serum London to linear peptides of protein X4 of SARS-CoV Urbani” value is reported as 0.6, the “Binding of serum London to looped/cyclic peptides of protein X4 of SARS-CoV Urbani” value worked out at 0.4, the “Binding of serum SARS-green to linear peptides of protein X4 of SARS-CoV Urbani” value is given as 0.5 and the “Binding of serum SARS-green to looped/cyclic peptides of protein X4 of SARS-CoV Urbani” value was found to be 0.6. Moreover, in assay [1], the “Binding of serum SARS-yellow to linear peptides of protein X4 of SARS-CoV Urbani” value was found to be 0.3 and the “Binding of serum SARS-yellow to looped/cyclic peptides of protein X4 of SARS-CoV Urbani” value is 0.3. Also, in assay [2], the “Binding of Control Serum Blood-Bank to Looped peptides” value turned out to be 0.3, the “Binding of Control serum Blood-bank to linear peptides” value was determined as 0.4, the “Binding of Control serum LUMC to linear peptides” value turned out to be 0.3 and the “Binding of Control serum LUMC to looped peptides” value is given as 0.5. Besides, in assay [3], the “Rabbit serum linear peptides” value stood at 0.5 and the “Rabbit serum looped peptides” value was found to be 0.8.
SQRVGTDSGFAAYNR: in assay [1], the “Binding of serum 1a to linear peptides of protein M of SARS-CoV Urbani” value was 0.8, the “Binding of serum 1a to looped/cyclic peptides of protein M of SARS-CoV Urbani” value is recorded as 0.5, the “Binding of serum 1b to linear peptides of protein M of SARS-CoV Urbani” value is recorded as 0.6 and the “Binding of serum 1b to looped/cyclic peptides of protein M of SARS-CoV Urbani” value is 0.4. Also, in assay [1], the “Binding of serum 2 to linear peptides of protein M of SARS-CoV Urbani” value is on record as 0.4, the “Binding of serum 2 to looped/cyclic peptides of protein M of SARS-CoV Urbani” value is 0.7, the “Binding of serum 6 to linear peptides of protein M of SARS-CoV Urbani” value is recorded as 0.6 and the “Binding of serum 6 to looped/cyclic peptides of protein M of SARS-CoV Urbani” value turned out to be 0.6. In addition, in assay [1], the “Binding of serum 37 to linear peptides of protein M of SARS-CoV Urbani” value is given as 0.5, the “Binding of serum 37 to looped/cyclic peptides of protein M of SARS-CoV Urbani” value is reported as 0.2, the “Binding of serum 62 to linear peptides of protein M of SARS-CoV Urbani” value worked out at 0.4 and the “Binding of serum 62 to looped/cyclic peptides of protein M of SARS-CoV Urbani” value was found to be 0.5. For the same sequence, in assay [1], the “Binding of serum London to linear peptides of protein M of SARS-CoV Urbani” value is 0.4, the “Binding of serum London to looped/cyclic peptides of protein M of SARS-CoV Urbani” value is reported as 0.2, the “Binding of serum SARS-green to linear peptides of protein M of SARS-CoV Urbani” value amounted to 0.5 and the “Binding of serum SARS-green to looped/cyclic peptides of protein M of SARS-CoV Urbani” value came to 0.4. For the same sequence, in assay [1], the “Binding of serum SARS-yellow to linear peptides of protein M of SARS-CoV Urbani” value was found to be 0.5 and the “Binding of serum SARS-yellow to looped/cyclic peptides of protein M of SARS-CoV Urbani” value came to 0.6. Further, in assay [2], the “Binding of Control Serum Blood-Bank to Looped peptides of the protein M of SARS-CoV Urbani” value was 0.7, the “Binding of Control serum Blood-bank to linear peptides of the protein M of SARS-CoV Urbani” value came to 0.9, the “Binding of Control serum LUMC to linear peptides of the protein M of SARS-CoV Urbani” value stood at 1.0 and the “Binding of Control serum LUMC to looped peptides of the protein M of SARS-CoV Urbani” value is listed as 0.6. In addition, in assay [3], the “Rabbit serum linear peptides” value stood at 0.2 and the “Rabbit serum looped peptides” value came out at 0.1.
On to SRRRLLACLCKHKKV, for which, in assay [1], the “Binding of serum 1a to looped/cyclic peptides of protein X2 of SARS-CoV Urbani” value is reported as 0.2, the “Binding of serum 1b to looped/cyclic peptides of protein X2 of SARS-CoV Urbani” value came to 0.2, the “Binding of serum 2 to looped/cyclic peptides of protein X2 of SARS-CoV Urbani” value is recorded as 0.1 and the “Binding of serum 6 to looped/cyclic peptides of protein X2 of SARS-CoV Urbani” value is on record as 0.0. Besides, in assay [1], the “Binding of serum 37 to looped/cyclic peptides of protein X2 of SARS-CoV Urbani” value came out at 0.2, the “Binding of serum 62 to looped/cyclic peptides of protein X2 of SARS-CoV Urbani” value stood at 0.3, the “Binding of serum London to looped/cyclic peptides of protein X2 of SARS-CoV Urbani” value came out at 0.1 and the “Binding of serum SARS-green to looped/cyclic peptides of protein X2 of SARS-CoV Urbani” value worked out at 0.2. Further, in assay [1], the “Binding of serum SARS-yellow to looped/cyclic peptides of protein X2 of SARS-CoV Urbani” value is recorded as 0.2; the “Recognition of the peptide by sera of SARS-CoV infected individuals, and form (linear, looped/cyclic) in which it is recognized” value is “recognized in linear form”. Also, in assay [2], the “Binding of Control Serum Blood-Bank to Looped peptides” value is listed as 0.2, the “Binding of Control serum Blood-bank to linear peptides” value stood at 0.9, the “Binding of Control serum LUMC to linear peptides” value worked out at 0.6 and the “Binding of Control serum LUMC to looped peptides” value stood at 0.2. Further, in assay [3], the “Binding of a rabbit serum to linear peptides” value came out at 0.3 and the “Binding of a rabbit serum to looped peptides” value is 0.4.
